Experiments:
Format in all cases: functional
Rattus norvegicus [1] = species on record: Rattus norvegicus; experiment: Effect on colon small bowel tumorigenesis in rats fed with safflower oil diet(Group 1 diet)
Rattus norvegicus [2] = species on record: Rattus norvegicus; experiment: Average number of tumors per rat in colon small bowel tumorigenesis in rats fed with cholesterol and cholic acid diet(Group 2 diet)
Rattus norvegicus [3] = species on record: Rattus norvegicus; experiment: Effect on colon large bowel tumorigenesis in rats fed with cholesterol and cholic acid diet(Group 2 diet)
Rattus norvegicus [4] = species on record: Rattus norvegicus; experiment: Effect on colon large bowel tumorigenesis in rats fed with safflower oil diet(Group 1 diet)
Rattus norvegicus [5] = species on record: Rattus norvegicus; experiment: Average number of tumors per rat in colon large bowel tumorigenesis in rats fed with safflower oil diet(Group 1 diet)
Rattus norvegicus [6] = species on record: Rattus norvegicus; experiment: Average number of tumors per rat in colon large bowel tumorigenesis in rats fed with cholesterol and cholic acid diet(Group 2 diet)
Rattus norvegicus [7] = species on record: Rattus norvegicus; experiment: Effect on colon small bowel tumorigenesis in rats fed with cholesterol and cholic acid diet(Group 2 diet)
Rattus norvegicus [8] = species on record: Rattus norvegicus; experiment: Average number of tumors per rat in colon small bowel tumorigenesis in rats fed with safflower oil diet(Group 1 diet)

## NC[C@@H]1O[C@H](O[C@H]2[C@@H](O)[C@H](O[C@@H]3[C@@H](O)[C@H](N)C[C@H](N)[C@H]3O[C@H]3O[C@H](CN)[C@@H](O)[C@H](O)[C@H]3N)O[C@@H]2CO)[C@H](N)[C@@H](O)[C@@H]1O [FRAMYCETIN]
Rattus norvegicus [1]
  Incidence: 22%
Rattus norvegicus [2]
  No. of tumors: 0.5
Rattus norvegicus [3]
  Incidence: 80%
Rattus norvegicus [4]
  Incidence: 98%
Rattus norvegicus [5]
  No. of tumors: 3
Rattus norvegicus [6]
  No. of tumors: 1.13
Rattus norvegicus [7]
  Incidence: 25%
Rattus norvegicus [8]
  No. of tumors: 0.5

Reference: ChEMBL document CHEMBL1132093, “Fecal excretion pattern of bile acids in rats fed high fat diets and neomycin in induced colon tumorigenesis” (1999)
